According to the NIST ThermoML archive (doi:10.1021/je4007019):

Assay: molar heat capacity at constant pressure; xn = mol fraction of the nth substance listed
Details: Liquid, Large sample (1 g) DSC

CCCC [butane] + C
molar heat capacity at constant pressure [J/K/mol]
Details	118.15 K	128.15 K	138.15 K	148.15 K	158.15 K	168.15 K	178.15 K
5050 kPa, x2 = 0.95	–	–	–	62.44	64.49	67.9	73.38
5150 kPa, x2 = 0.6	76.47	76.37	77.25	77.85	78.21	78.34	–
5150 kPa, x2 = 0.88	61.84	62.6	63.49	64.92	66.55	68.32	–

C [methane] + CCC
molar heat capacity at constant pressure [J/K/mol]
Details	108.15 K	118.15 K	128.15 K	143.15 K	153.15 K	163.15 K
4700 kPa, x1 = 0.81	59.46	59.69	60.46	61.47	62.96	63.63
5200 kPa, x1 = 0.82	59.21	59.52	60.05	61.36	62.9	63.97
6000 kPa, x1 = 0.81	57.53	58.6	59.05	60.8	62.56	63.41
